We go through 25 compounds from patent US8785459B2, “Quinazoline compounds as kinase inhibitors” (Development Center for Biotechnology, priority 2011, dated 2014).

What all share (format): biochemical
Assay [1] concerns the target C-Raf (Homo sapiens (Human), UniProt P04049). The assay is described as follows: Raf kinase assay (C-Raf), [33P] incorporation into MEK1(K97R). Put shortly: (§1)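 Recombinant C-Raf (2 ng) or B-Raf or B-Raf V600E (5 ng each) phosphorylated 500 ng MEK1(K97R) with 8 μM ATP plus [33P]ATP, pH 7.5, 30 min at 30 °C. Filter-captured 33P counted. IC50 from 3-fold compound dilutions run in duplicate.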

The target in assay [2] is B-Raf (V600E) (Homo sapiens (Human), UniProt P15056, V600E). The assay is described as follows: Raf kinase assay (B-Raf (V600E)), [33P] incorporation into MEK1(K97R). The procedure, abridged:
as §1

The target in assay [3] is B-Raf (Homo sapiens (Human), UniProt P15056). The assay is described as follows: Raf kinase assay (B-Raf), [33P] incorporation into MEK1(K97R). Conditions: for inhibition at 1 µM / B-Raf inhibition at 1.0 μM: 1.0 μM compound; for inhibition at 1 µM: read-out: B-Raf inhibition at 1.0 μM. The procedure, abridged:
as §1

Sequence of C-Raf (P04049 whole entry): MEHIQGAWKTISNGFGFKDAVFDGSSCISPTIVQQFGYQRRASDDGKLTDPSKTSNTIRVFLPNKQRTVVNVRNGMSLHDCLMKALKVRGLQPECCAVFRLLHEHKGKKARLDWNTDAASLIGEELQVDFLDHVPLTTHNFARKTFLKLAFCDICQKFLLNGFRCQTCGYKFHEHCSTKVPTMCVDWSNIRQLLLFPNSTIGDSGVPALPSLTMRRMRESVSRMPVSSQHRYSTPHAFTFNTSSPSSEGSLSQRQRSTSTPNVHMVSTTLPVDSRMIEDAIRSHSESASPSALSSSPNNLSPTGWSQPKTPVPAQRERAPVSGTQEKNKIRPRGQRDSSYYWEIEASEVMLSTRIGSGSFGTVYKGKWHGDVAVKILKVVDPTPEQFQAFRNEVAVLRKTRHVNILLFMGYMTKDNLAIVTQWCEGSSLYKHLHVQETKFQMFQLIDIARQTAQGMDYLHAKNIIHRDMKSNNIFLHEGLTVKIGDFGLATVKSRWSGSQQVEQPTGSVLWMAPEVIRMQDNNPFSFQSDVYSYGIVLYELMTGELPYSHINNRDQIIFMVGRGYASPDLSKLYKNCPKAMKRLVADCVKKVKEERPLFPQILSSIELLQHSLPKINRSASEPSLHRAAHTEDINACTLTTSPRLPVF
Sequence of B-Raf (V600E) (P15056 whole entry V600E): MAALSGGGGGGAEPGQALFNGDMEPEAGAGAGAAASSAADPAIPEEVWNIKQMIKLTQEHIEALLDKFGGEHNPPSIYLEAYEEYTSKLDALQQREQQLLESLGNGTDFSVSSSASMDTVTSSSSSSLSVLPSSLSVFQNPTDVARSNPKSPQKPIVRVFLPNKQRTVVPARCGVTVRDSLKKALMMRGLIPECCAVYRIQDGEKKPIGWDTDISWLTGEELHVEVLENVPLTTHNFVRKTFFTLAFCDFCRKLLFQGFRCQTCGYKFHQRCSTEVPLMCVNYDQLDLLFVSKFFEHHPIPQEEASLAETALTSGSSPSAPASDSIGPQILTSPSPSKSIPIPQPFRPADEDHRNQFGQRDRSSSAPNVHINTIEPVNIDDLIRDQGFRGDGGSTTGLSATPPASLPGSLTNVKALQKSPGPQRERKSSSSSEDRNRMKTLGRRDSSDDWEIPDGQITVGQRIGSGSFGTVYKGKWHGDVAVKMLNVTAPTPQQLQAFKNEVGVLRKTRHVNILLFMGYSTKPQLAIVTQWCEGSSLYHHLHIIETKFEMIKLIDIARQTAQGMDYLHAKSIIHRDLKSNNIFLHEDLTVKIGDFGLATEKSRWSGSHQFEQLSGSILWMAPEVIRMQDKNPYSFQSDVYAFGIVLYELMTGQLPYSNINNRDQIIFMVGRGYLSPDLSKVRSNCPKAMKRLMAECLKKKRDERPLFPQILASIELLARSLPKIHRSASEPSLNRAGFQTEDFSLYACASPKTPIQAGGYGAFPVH
Sequence of B-Raf (P15056 whole entry): as the sequence (P15056 whole entry V600E) above, with E600V counted along it

Regarding `COc1cc(-c2ccc3ncnc(Nc4ccc5[nH]nnc5c4)c3c2)ccc1O` [Compound 66, 4-(4-(1H-benzo[d][1,2,3]triazol-5-ylamino)quinazolin-6-yl)-2-methoxyphenol], the half-maximal inhibitory concentration (IC50) was 973 nM in assay [1], 933 nM in assay [2] and 1010 nM in assay [3]. Moreover, the inhibition at 1 µM in assay [3] stood at 59.3%.
Consider `COc1cc(-c2ccc3ncnc(Nc4c(F)ccc5[nH]ncc45)c3c2)ccc1O` [Compound 136, 4-(4-(5-fluoro-1H-indazol-4-ylamino)quinazolin-6-yl)-2-methoxyphenol], for which the concentration for half-maximal inhibition (IC50) came to 1130 nM in assay [1], 268 nM in assay [2] and 350 nM in assay [3]. In assay [3], the “B-Raf inhibition at 1.0 μM” value was found to be 84.9%.
Regarding `COc1cc(-c2ccc3ncnc(Nc4ccc(F)cc4F)c3c2)ccc1O` [Compound 20, 4-(4-(2,4-difluorophenylamino)quinazolin-6-yl)-2-methoxyphenol], the IC50 is 882 nM in assay [1], 471 nM in assay [2] and 594 nM in assay [3]. In addition, the inhibition at 1 µM in assay [3] was 55.3%.
For `COc1cc(-c2ccc3ncnc(Nc4cccc(C(N)=O)c4)c3c2)ccc1O` [Compound 35, 3-(6-(4-hydroxy-3-methoxyphenyl)quinazolin-4-ylamino)benzamide], the IC50 is 970 nM in assay [1], 290 nM in assay [2] and 317 nM in assay [3]. Also, the inhibition at 1 µM in assay [3] turned out to be 74.9%.
The like results for `N#Cc1ccc(-c2ccc3ncnc(Nc4cccc5[nH]ncc45)c3c2)cc1` [Compound 88, 4-(4-(1H-indazol-4-ylamino)quinazolin-6-yl)benzonitrile] were, in that order, 630 nM, 299 nM, 249 nM and 77.4%.
The corresponding values for `COc1ccc(-c2ccc3ncnc(Nc4cccc5[nH]ncc45)c3c2)cc1OC` [Compound 89, 6-(3,4-dimethoxyphenyl)-N-(1H-indazol-4-yl)quinazolin-4-amine] are 869 nM, 259 nM, 205 nM and 80.4%.
The like results for `O=[N+]([O-])c1cccc(-c2ccc3ncnc(Nc4cccc5[nH]ncc45)c3c2)c1` [Compound 92, N-(1H-indazol-4-yl)-6-(3-nitrophenyl)quinazolin-4-amine] were, in that order, 1610 nM, 535 nM, 428 nM and 66.3%.
As for `COc1cccc(Nc2ncnc3ccc(-c4ccc(O)c(OC)c4)cc23)c1` [Compound 22, 2-methoxy-4-(4-(3-methoxyphenylamino)quinazolin-6-yl)phenol], the figures for the IC50 in assay [1], in assay [2] and in assay [3] were 1390 nM, 411 nM and 719 nM, respectively. For the same compound, the inhibition at 1 µM in assay [3] was found to be 63.3%.
For `COc1cccc(-c2ccc3nccc(Nc4cccc5[nH]ncc45)c3c2)c1` [Compound 146, N-(1H-indazol-4-yl)-6-(3-methoxyphenyl)quinolin-4-amine], the IC50 in assay [1] was 3700 nM; in assay [2], 426 nM; in assay [3], 614 nM. For the same compound, the “B-Raf inhibition at 1.0 μM” value in assay [3] is on record as 64.3%.
For the compound `COc1cc(-c2ccc3ncnc(Nc4ccc(C)cc4F)c3c2)ccc1O` [Compound 17, 4-(4-(2-fluoro-4-methylphenylamino)quinazolin-6-yl)-2-methoxyphenol], the IC50 came to 1910 nM in assay [1], 619 nM in assay [2] and 647 nM in assay [3]. Further, the inhibition at 1 µM in assay [3] came out at 59.4%.
Take `Cc1ccc(F)cc1-c1ccc2ncnc(Nc3cccc4[nH]ncc34)c2c1` [Compound 104, 6-(5-fluoro-2-methylphenyl)-N-(1H-indazol-4-yl)quinazolin-4-amine]: the IC50 stood at 778 nM in assay [1], 357 nM in assay [2] and 235 nM in assay [3]. Further, the inhibition at 1 µM in assay [3] amounted to 81.1%.
As for `COc1cc(-c2ccc3ncnc(Nc4cccc(NS(C)(=O)=O)c4)c3c2)ccc1O` [Compound 56, N-(3-(6-(4-hydroxy-3-methoxyphenyl)quinazolin-4-ylamino)phenyl)methanesulfonamide], the 50% inhibitory concentration (IC50) was found to be 1410 nM in assay [1], 430 nM in assay [2] and 463 nM in assay [3]. In addition, in assay [3], the inhibition at 1 µM was found to be 64.1%.
For the compound `CS(=O)(=O)c1ccc(-c2ccc3ncnc(Nc4cccc5[nH]ncc45)c3c2)cc1` [Compound 110, N-(1H-indazol-4-yl)-6-(4-(methylsulfonyl)phenyl)quinazolin-4-amine], the results for the IC50 in assay [1], in assay [2] and in assay [3] were 650 nM, 273 nM and 248 nM, respectively. The inhibition at 1 µM in assay [3] was 81.8%.
The like results for `COc1cc(-c2ccc3ncnc(Nc4cccc(N)c4)c3c2)ccc1O` [Compound 37, 4-(4-(3-aminophenylamino)quinazolin-6-yl)-2-methoxyphenol] were, in that order, 1310 nM, 849 nM, 573 nM and 65.8%.
The corresponding values for `COc1cc(-c2ccc3ncnc(Nc4cccc5c4cnn5C)c3c2)ccc1O` [Compound 99, 2-methoxy-4-(4-(1-methyl-1H-indazol-4-ylamino)quinazolin-6-yl)phenol] are 3910 nM, 451 nM, 358 nM and 61.1%.
In the case of `COc1cccc(-c2ccc3ncnc(Nc4ccccc4)c3c2)c1` [Compound 3, 6-(3-methoxyphenyl)-N-phenylquinazolin-4-amine], the IC50 in assay [1] was more than 10000 nM; in assay [2], 3390 nM; in assay [3], 3290 nM.
On to `Oc1cccc(-c2ccc3ncnc(Nc4cccc5[nH]ncc45)c3c2)c1` [Compound 143, 3-(4-(1H-indazol-4-ylamino)quinazolin-6-yl)phenol], for which the IC50 in assay [1] was 1960 nM; in assay [2], 357 nM; in assay [3], 227 nM. Further, the inhibition at 1 µM in assay [3] amounted to 75.4%.
The like results for `COc1cc(-c2ccc3ncnc(Nc4ccccc4C(N)=O)c3c2)ccc1O` [Compound 33, 2-(6-(4-hydroxy-3-methoxyphenyl)quinazolin-4-ylamino)benzamide] were, in that order, more than 3000 nM, 2340 nM, 667 nM and 53.6%.
The like results for `CS(=O)(=O)Nc1cccc(-c2ccc3ncnc(Nc4cccc(O)c4)c3c2)c1` [Compound 72, N-(3-(4-(3-hydroxyphenylamino)quinazolin-6-yl)phenyl)methanesulfonamide] were, in that order, 861 nM, 90 nM, 73.8 nM and 93.4%.
The like results for `COc1cc(-c2ccc3ncnc(Nc4ccc(S(N)(=O)=O)cc4)c3c2)ccc1O` [Compound 46, 4-(6-(4-hydroxy-3-methoxyphenyl)quinazolin-4-ylamino)benzenesulfonamide] were, in that order, 1960 nM, 576 nM, 624 nM and 64.4%.
Take `Oc1c(F)ccc(Nc2ncnc3ccc(-c4ccc(Cl)cc4)cc23)c1F` [Compound 164, 3-(6-(4-chlorophenyl)quinazolin-4-ylamino)-2,6-difluorophenol]: the IC50 stood at 3510 nM in assay [1], 216 nM in assay [2] and 151 nM in assay [3]. In assay [3], the inhibition at 1 µM came to 83%.
Consider `COc1cc(-c2ccc3ncnc(Nc4cccc(S(N)(=O)=O)c4)c3c2)ccc1O` [Compound 27, 3-(6-(4-hydroxy-3-methoxyphenyl)quinazolin-4-ylamino)benzenesulfonamide], for which the IC50 in assay [1] is 887 nM; in assay [2], 453 nM; in assay [3], 415 nM. For the same compound, the inhibition at 1 µM in assay [3] was found to be 77.2%.
The like results for `COc1cc(-c2ccc3ncnc(Nc4ccc5c(c4)OCO5)c3c2)ccc1O` [Compound 38, 4-(4-(benzo[d][1,3]dioxol-5-ylamino)quinazolin-6-yl)-2-methoxyphenol] were, in that order, 1400 nM, 707 nM, 660 nM and 57.5%.
On to `COc1ccc(-c2ccc3ncnc(Nc4cccc5[nH]ncc45)c3c2)c(C)c1` [Compound 77, N-(1H-indazol-4-yl)-6-(4-methoxy-2-methylphenyl)quinazolin-4-amine], for which the IC50 in assay [1] worked out at 2530 nM; in assay [2] it was 911 nM; in assay [3], 698 nM. Moreover, the inhibition at 1 µM in assay [3] came to 61.7%.
The corresponding values for `COc1cc(-c2cc3c(Nc4ccc(C)c(O)c4)ncnc3cc2OC)ccc1O` [Compound 41, 4-(4-(3-hydroxy-4-methylphenylamino)-7-methoxyquinazolin-6-yl)-2-methoxyphenol] are more than 10000 nM, 349 nM, 266 nM and 82.2%.

One may read the IC50 as the point on the concentration scale where inhibition reaches its midpoint. A word on the inhibition: it is the relative decrease from the control value, in per cent.
